Data as given in PubChem BioAssay (NCI).
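Five concentrations, 48 hours, 96-well plates. At the TGI there is no net growth.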

How the values were obtained:
Assay in all cases: NCI tumour cell line growth inhibition, 48 h
UACC-62 melanoma = test system: UACC-62 melanoma
MCF7 breast = test system: MCF7 breast
NCI-H226 lung = test system: NCI-H226 lung
HL-60(TB) leukemia = test system: HL-60(TB) leukemia
SF-539 CNS = test system: SF-539 CNS
SK-MEL-2 melanoma = test system: SK-MEL-2 melanoma
MALME-3M melanoma = test system: MALME-3M melanoma
SK-MEL-28 melanoma = test system: SK-MEL-28 melanoma
MDA-MB-435 = test system: MDA-MB-435
SN12C renal = test system: SN12C renal

SMILES	TGI (UACC-62 melanoma) [µM]	TGI (MCF7 breast) [µM]	TGI (NCI-H226 lung) [µM]	TGI (HL-60(TB) leukemia) [µM]	TGI (SF-539 CNS) [µM]	TGI (SK-MEL-2 melanoma) [µM]	TGI (MALME-3M melanoma) [µM]	TGI (SK-MEL-28 melanoma) [µM]	TGI (MDA-MB-435) [µM]	TGI (SN12C renal) [µM]
COc1cc(C2c3cc4c(cc3[C@@H](Nc3ccc5c(c3)OCO5)C3COC(=O)[C@H]23)OCO4)cc(OC)c1O (stereo not given in full)	5.35	10.1	2.06	0.977	2.41	5.96	10.1	> 95.3	–	–
CC1(C)N=C2C(=O)c3c([nH]c4ccccc34)[C@]3(C)CCC1CC23 (stereo not given in full)	–	> 6.25	> 6.25	> 6.25	> 6.25	> 6.25	> 6.25	> 6.25	> 6.25	> 6.25
COC(=O)[C@H](Cc1ccccc1)NC(=O)N(CCC#N)CCN(C(=O)N[C@@H](Cc1ccccc1)C(=O)OC)c1ccccc1	13.6	> 100	89	–	41.1	39.3	–	33.9	39.2	89
CN1N=C(c2ccncc2)OC1c1ccccc1F (stereo not given)	> 100	–	> 100	> 100	> 100	> 100	–	> 100	> 100	> 100
COC(=O)C1(O)C(c2ccccc2)=NC2(C)CCCC21 (stereo not given)	> 100	–	> 100	–	–	> 100	> 100	> 100	> 100	> 100
Cc1cc(C)c(/C=C(\C(=C/c2c(C)cc(C)cc2C)[N+](=O)[O-])[N+](=O)[O-])c(C)c1	> 100	> 100	–	–	> 100	> 100	–	> 100	> 100	> 100
COc1ccc(/C=N/n2c(C)nc3c(sc(=S)n3-c3ccccc3)c2=O)cc1	> 100	–	> 100	61.2	> 100	–	–	> 100	–	–
COc1cccc2c1OCC1Cc3ccccc3OC21 (stereo not given)	> 100	> 100	> 100	–	> 100	> 100	> 100	–	75.3	70.1
CCOC(=O)C1CCC(=O)N1C(=O)c1ccccc1Cl (stereo not given)	95.5	> 100	> 100	> 100	> 100	–	> 100	> 100	> 100	> 100
O=C(/C=C/c1ccc2c(c1)OCO2)Cc1nc2ccccc2[nH]c1=O	> 100	> 100	–	> 100	> 100	50.7	43.4	61.5	46.1	60.2
CC#CC(O)(C(=O)OC1CC(C)N(C)C(C)(C)C1)C1CCCC1 (stereo not given)	> 100	> 100	> 100	> 100	> 100	–	> 100	> 100	> 100	> 100
CC1(C)OC2COC3([C@@H]4OC(C)(C)O[C@@H]4CO)OC(C)(C)OC3C2O1 (stereo not given in full)	> 100	> 100	> 100	–	> 100	> 100	–	> 100	> 100	> 100
